Literature values as cited in patent publication US20250212890A1, “COMBINATIONS OF AV3 MUTANT POLYPEPTIDES AND Bt TOXINS FOR PEST CONTROL” (Vestaron Corporation, priority 2022, published 2025).

How the values were obtained:
[1] = test system: crustacean and insect sodium channels; conditions: Moran et al., Toxicon 2009
[2] = test system: mammalian sodium channels; conditions: Moran et al., Toxicon 2009

## Av3
[1]
  selectivity for crustacean and insect sodium channels: high selectivity
[2]
  selectivity for mammalian sodium channels: low selectivity
